Patent US8258099B2, “Pin1-modulating compounds and methods of use thereof” (Max-Planck-Gesellschaft zur Foerderung der Wissenschaften …, priority 2004, dated 2012)
Where two headings read alike, the source gives them in different places. Square brackets hold non-standard residues; d marks the D form. Peptide text beside a SMILES is read from it. * marks the point of attachment. Biotin = O=C1N[C@H]2[C@H](CS[C@H]2CCCCC(=O)*)N1; pT = C[C@@H](OP(=O)(O)O)[C@H](N)C(=O)O; 2Nal = N[C@@H](Cc1ccc2ccccc2c1)C(=O)O; Bta = N[C@@H](Cc1csc2ccccc12)C(=O)O; Pip = O=C(O)[C@@H]1CCCCN1

Key:
[1] = target: T1, hPin1 (Homo sapiens, UniProt Q13526); assay: Protease free PPIase assay, hPin1; assay type: biochemical
T1 construct: The protease free assay ensures reliable measurement of IC50 values for the full-length hPin1
Experimental: Protein concentrations were determined using the extinction coefficient ε280=21030 M^−1 cm^−1 for hPin1, ε280=6979 M^−1 cm^−1 for the hPin1 PPIase domain, ε280=21030 M^−1 cm^−1 for XlPin1, ε280=8250 M^−1 cm^−1 for hPar14 and ε280=8250 M^−1 cm^−1 for hCyp18. Extinction coefficients were calculated using the program ProtParam Tool at ExPASy (SIB, Switzerland). All measurements were done at 10° C. in 35 mM Hepes buffer (pH 7.8).
The determination of the kinetic constants of the cis/trans isomerization within the protease-free system was performed using fluorescence based measurements (Garcia-Echeverria et al., 1993, Zhang et al., 2002) on a Hitachi F-3010 fluorescence spectrophotometer with H-Abz-Ala-Glu-Pro-Phe-NH-Np (SEQ ID NO: 2) as substrate. The substrate stock solution was 12 mM in anhydrous trifluoroethanol/0.55 M LiCl. Measurements were initiated by addition of the substrate (final concentration 10 μM) to a pre-incubated (15 min) mixture of 8.8 nM hPin1 or 7.1 nM XlPin1 and respective inhibitory peptide of desired concentrations. The excitation wavelength was 320 nm (spectral bandwidth 3 nm) and emission was detected at 420 nm (spectral bandwidth 10 nm).
Data analysis was performed by single-exponential nonlinear regression using the SigmaPlot Scientific Graphing System Version 5.00 (Jandel Corp.). The apparent first order rate constant kobs was computed by nonlinear regression of the progress curve obtained for the respective measurement. The rate constant k0 was determined in the absence of Pin1. The first order rate constants kenz was calculated from the equation kenz=kobs−k0. IC50 and Ki values were determined by fitting the first order rate constants kenz against the concentration of the inhibitory peptide by nonlinear regression according to Schutkowski et al., 1995 or a model for tight binding inhibitors (Morrison, 1969).
The protease free assay ensures reliable measurement of IC50 values for the full-length hPin1.

[2] = Stability against cellular phosphatases and proteases in HeLa cell lysate; assay type: in vitro ADME; settings: cytoplasmic extracts from HeLa cells, prolonged incubation, MALDI-TOF
Experimental: FIG. 4 depicts the stability of peptide 17 against cellular phosphatases and proteases. Peptide 17 was incubated for 3 hours in HeLa cell lysate in the absence of phosphatase and protease inhibitors. The mixture was then analyzed by capillary electrophoresis (short dashed line). As controls, the untreated peptide 17 (solid line) and its nonphosphorylated derivative (dotted line) were used. The temperature of the capillary thermostating system was kept at 16° C. Separation buffer was 50 mM sodium phosphate, pH 7.0. Signals were detected at 220 nm.
Peptide 17 was incubated with HeLa cell lysate for 3 h and analyzed with capillary electrophoresis using UV detection at 220 nm on a P/ACE MDQ (Beckman Coulter, Palo Alto, Calif.) system. Fused-silica capillaries (Polymicro Technologies) of 40 cm length at an operation voltage of 20 kV were used. As references, untreated peptide 17 and its nonphosphorylated derivative were used. The samples were hydrodynamically injected with 3.45 kPa for 10 s. 50 mM sodium phosphate buffer (pH 7.0) was used as separation buffer. The system temperature was kept at 16° C.
The stability of peptides 15 and 17 in cytoplasmic extracts from HeLa cells was investigated using MALDI-TOF mass spectrometry and capillary electrophoresis, respectively. In the cytosolic incubation mixture, streptavidin sepharose beads served to isolate peptide 15 fragments after prolonged incubation. […] Therefore, phosphopeptides are useless for evaluating Pin1 functions in vivo unless dephosphorylation can be avoided.

[3] = target: T2, GST-hPin1, GST-hPin1 PPIase and GST-hPin1 WW domain (Homo sapiens, UniProt Q13526); assay: Far western blot related analysis, hPin1 and its single domains; assay type: binding; settings: 1 μM peptide 15, 50 μM nonphosphorylated derivative
T2 construct: made in house
Experimental: (§1) FIGS. 2A-B depict western blot experiments analyzing the binding of peptide 15 to Pin1. FIG. 2A depicts the binding preferences of the PPIase and WW domain of hPin1 regarding peptide 15. In far western blot related experiments, increasing amounts (from left to right: 1, 5, 10, 52.5, 105 pmol) of GST, GST-hPin1 or its single GST-hPin1 PPIase and GST-hPin1 WW domain were spotted onto nitrocellulose membranes followed by a blocking procedure. The membranes were then incubated with a 1 μM solution of peptide 15 or 50 μM solution of its nonphosphorylated derivative (control). Signals were detected after incubation of the nitrocellulose membranes with horseradish peroxidase-conjugated streptavidin followed by a chemiluminescent reaction using the SuperSignal® substrate. FIG. 2B depicts an analysis of the binding of peptide 15 towards different GST-hPin1 variants. […] Residual PPIase activities of GST-hPin1 and its variants were determined according to Zhou et al., 2000 and/or Yaffe et al., 1997. The PPIase activity of the GST-hPin1 variant Ser16Glu was measured in the protease free PPIase assay.
GST-hPin1 variants, GST-hPin1 PPIase and GST-hPin1 WW domain were prepared as described previously (Ranganathan et al., 1997, Zhou et al., 2000). […] Specific bound peptide 15 was detected by a chemiluminescent reaction using the SuperSignal® substrate (Pierce).

[4] = target: T3, GST-hPin1 variant Ser16Glu (Homo sapiens, UniProt Q13526, S16E); assay: Far western blot related analysis, GST-hPin1 variants; assay type: binding
T3 construct: made in house
Experimental: as §1, with “variants. The indicated amounts of peptide 15 were spotted onto nitrocellulose membranes followed by a blocking procedure and incubation with the respective GST-hPin1 variant.” for “variants.”, “assay. […]” for “assay.”

- IC50 ([1]; blockade of PPIase activity of full-length hPin1, protease free assay, 10° C., read-out: IC50): 0.21 µM
- IC50 ([1]; protease free assay, full-length hPin1, read-out: lowest IC50 value): ~0.2 µM
- phosphothreonine residue in cytosol [2]: completely dephosphorylated
- sequence integrity in cytosol [2]: sequence integrity was maintained
- binding to GST-hPin1 and its PPIase and WW domains [3]: binds only to the PPIase domain
- effect of Ser16Glu substitution in hPin1 on affinity [4]: virtually no effect
Structure (SMILES): CC(=O)N[C@@H](CCCCNC(=O)CCCC[C@@H]1SC[C@@H]2NC(=O)N[C@@H]21)C(=O)N[C@@H](C)C(=O)N[C@@H](C)C(=O)N[C@@H](Cc1csc2ccccc12)C(=O)N[C@H](C(=O)N1CCCC[C@H]1C(=O)N[C@@H](Cc1ccc2ccccc2c1)C(=O)N[C@@H](CCC(N)=O)C(N)=O)[C@@H](C)OP(=O)(O)O [Peptide 15, Ac-Lys(N^ε-biotinoyl)-Ala-Ala-Bth-Thr(PO3H2)Pip-Nal-Gln-NH2] (Ac-K(Biotin)AA[Bta][pT][Pip][2Nal]Q-NH2)
